Experiments:
[1] = target: T1, recombinant human eotaxin (CCL11) (Homo sapiens, UniProt P51671); experiment: BIAcore inhibition of eotaxin-1 binding to immobilized heparin; conditions: BIAcore chip, FIG. 3D
T1 construct: host or cells: E. coli
Excerpt: The optical phenomenon of surface plasmon resonance is used to monitor physical interactions between molecules. Passing a solution of a potential protein ligand (e.g. IL-4, IL-5 or eotaxin) over a sensor surface to which a target (e.g. heparin) is coupled monitors the real-time binding of protein ligands to the immobilized target. Detection is achieved by measuring refractive index changes very close to the sensor surface. When the refractive index is altered, the angle at which plasmon resonance occurs changes and this change directly correlates with the amount of protein interacting with the surface. A BIAcore 2000 is conveniently used. […]
Biotinylated heparin is immobilized on the biosensor chip. […] Solutions containing potential protein ligands of interest are injected over the sensor chip surface, and the binding is measured in real time (Fernig, In: Proteoglycan protocols, Ed. R. V. Iozzo, Humana Press, Totowa, N.J., USA, 2001). Baculovirus expressed recombinant human IL-4 (rhIL-4) and baculovirus expressed recombinant human IL-5 (rhIL-5) readily bind to heparin immobilized by this method (see PCT/AU2005/000551). […] Similarly, recombinant human eotaxin (CCL11) expressed in E. coli binds readily to immobilized heparin and binding is specific as there is little eotaxin binding to sensor chips lacking heparin. […]

[2] = tested on: male C57Bl/6J mice exposed to cigarette smoke; experiment: Mouse model of emphysema/COPD, chronic cigarette smoke exposure; format: in vivo; conditions: chronic smoke exposure 6 months, PPS once a day
Description: A mouse model of emphysema was used. Acute and chronic exposure of mice to cigarette smoke lead to lung responses that in part mimic the inflammatory and structural changes observed in COPD. In this model male C57Bl/6J mice are subjected to acute and chronic smoke exposure, with normal room air being the control situation. In the acute study mice were exposed to either room air or to the smoke of five cigarettes (approximately 12 mg of tar and 0.9 mg of nicotine) for 20 minutes. In the chronic study mice were exposed to either room air or to the smoke of three cigarettes/day for 5 days/week for 6 months. The 4 groups of mice were then further divided so that mice within each group also received PPS via an inhaled route.
The animals in the chronic study received PPS once a day for the duration of the experiment. At the completion of the experiment animals were killed and the lungs fixed intratracheally with formalin (5%) and lung volume was measured by water displacement. The lung tissue was prepared for histochemistry and immunohistochemistry, the lung tissues being stained for hematoxylin-eosin and/or periodic acid-Schiff or with antibodies to the macrophage marker Mac-3. The level of desmosine in the lung tissue was also determined. Desmosine is an elastin-specific imino acid; the assessment of desmosine in the lung is taken as an indicator of the lung elastin content. […]

IL-13 = IL-13 (Homo sapiens, UniProt P35225); experiment: IL-13 dependent proliferation of TF-1 cells; format: cell-based
Excerpt: IL-13 is a cytokine with a key role in asthma and allergic disease (including allergic rhinitis) and it seems particularly important in […] the airway hyperreactivity seen with asthma (Wills-Karp, Immunol. Rev. 202:175-190, 2004). […] Pentosan polysulfate (PPS) and a DP5 sulfated xylan inhibited the proliferation of a human IL-13 responsive cell line. This occurs at very low doses and is not due to a toxic effect of the PPS because other, similarly sulfated polysaccharides, at the same concentrations of IL-13 and polysaccharide have no effect. These experiments utilize the TF-1 cells. TF-1 cells were originally established from a bone marrow sample from a person with severe pancytopenia. […]
The proliferation assays are carried out in 96-well microplates suitable for such assays (Falcon). […] The cells are counted with a Coulter Z2 Particle Counter and Size Analyzer (Coulter Electronics, England) and routinely 2.5×10^4 cells are added to microplate wells that contain either no IL-13 (negative control) or various dilutions of IL-13. When the effect of PPS is to be measured, the wells also contain various concentrations of this molecule. The cells proliferate for 48 hours at 37° C. in a humidified atmosphere, after which the number of cells present is quantified by staining with the AQUEOUS ONE dye (30 μl/well) for 3 hours and then absorbance is read at 490 nm.

IL-13, sequence (P35225 25-146): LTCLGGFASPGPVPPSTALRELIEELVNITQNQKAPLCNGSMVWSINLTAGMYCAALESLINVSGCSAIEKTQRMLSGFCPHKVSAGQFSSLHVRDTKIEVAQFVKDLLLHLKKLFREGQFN
T1 sequence (P51671 24-97): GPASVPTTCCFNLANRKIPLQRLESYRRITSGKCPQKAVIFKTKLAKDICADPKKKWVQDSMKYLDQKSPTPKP

Pentosan polysulfate [PPS]
IC50 [1]: ~15 nM
Overall effect in chronic COPD model [2]: acting as an anti-inflammatory agent
Inhibition of IL-13 dependent proliferation of TF-1 cells (in words) (IL-13; FIG. 16, IL-13 2.5 ng/ml): markedly inhibit
IL-13 mediated cell proliferation blocked (IL-13; PPS concentrations of 5-10 μg/ml, TF-1 cells, 48 hours): 75-80%
